Test results reported in patent US12559529B2, “NPY2 receptor agonists” (Boehringer Ingelheim International GmbH, priority 2019, dated 2026).
*1 amine or outer side, *2 acyl side, *3 side chain or, on linkers, in order; H or OH if unused. Where a SMILES comes first, the peptide text is derived from it. Side-chain parts run from the residue outwards. The star is where a group is joined. C18 diacid = O=C(O)CCCCCCCCCCCCCCCCC(=O)*; γGlu = O=C(O)[C@H](CCC(=O)[*:2])N[*:1]; Isovaleryl = CC(C)CC(=O)*; AEEA = NCCOCCOCC(=O)O

The compounds below were run against T1, Human Neuropeptide Y2 Receptor (Homo sapiens, UniProt P49146) (assay: Radioligand binding competition assay (RLB)). Details: Table 3; human 125I-PYY (1-36) 0.02 nM, Y2 receptor membranes; read-out: Ki.
T1 construct: purchased CHEMICON HTS066M
T1 sequence (P49146 1-381): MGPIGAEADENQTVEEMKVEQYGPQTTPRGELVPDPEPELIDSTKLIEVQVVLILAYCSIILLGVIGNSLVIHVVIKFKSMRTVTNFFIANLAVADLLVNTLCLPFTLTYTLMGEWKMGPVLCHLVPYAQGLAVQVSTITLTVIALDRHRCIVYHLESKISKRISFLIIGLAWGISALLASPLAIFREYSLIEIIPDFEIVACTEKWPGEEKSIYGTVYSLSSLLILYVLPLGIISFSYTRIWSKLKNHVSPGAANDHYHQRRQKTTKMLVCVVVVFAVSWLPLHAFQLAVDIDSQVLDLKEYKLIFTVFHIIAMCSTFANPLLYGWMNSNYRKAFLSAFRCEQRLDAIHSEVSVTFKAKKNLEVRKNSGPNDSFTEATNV
Method in brief: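 Membranes (0.5 μg/well) and test peptides, serially diluted from 1 mM DMSO stocks, were incubated 2 hours at room temperature in HEPES buffer pH 7.4 with Mg, Ca and ovalbumin.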

**Q.** How did the Ki turn out when CC(C)CC(=O)N[C@@H](C)C(=O)N1CCC[C@H]1C(=O)N[C@@H](CCC(=O)O)C(=O)N[C@@H](CCCCNC(=O)COCCOCCNC(=O)COCCOCCNC(=O)CC[C@H](NC(=O)CCCCCCCCCCCCCCCCC(=O)O)C(=O)O)C(=O)N1CCC[C@H]1C(=O)N[C@@H](CCC(=O)O)C(=O)N[C@@H](CCC(=O)O)C(=O)N[C@@H](CC(=O)O)C(=O)N[C@H](C(=O)N[C@@H](CO)C(=O)N1CCC[C@H]1C(=O)N[C@@H](CCC(=O)O)C(=O)N[C@@H](CCC(=O)O)C(=O)N[C@@H](CC(C)C)C(=O)N[C@@H](CCC(N)=O)C(=O)N[C@@H](CCCNC(=N)N)C(=O)N[C@@H](Cc1ccc(O)cc1)C(=O)N[C@@H](CCC(=O)O)C(=O)N[C@H](C(=O)N[C@@H](CO)C(=O)N[C@@H](CC(C)C)C(=O)N[C@@H](CCCNC(=N)N)C(=O)N[C@@H](Cc1c[nH]cn1)C(=O)N[C@@H](Cc1ccc(O)cc1)C(=O)N[C@@H](Cc1ccc(O)cc1)C(=O)N[C@@H](CC(N)=O)C(=O)N[C@@H](Cc1c[nH]c2ccccc12)C(=O)N[C@@H](CC(C)C)C(=O)N[C@H](C(=O)N[C@@H](CCCNC(=N)N)C(=O)N[C@@H](CCC(N)=O)C(=O)N[C@@H](CCCNC(=N)N)C(=O)N[C@@H](Cc1ccc(O)cc1)C(N)=O)[C@@H](C)O)C(C)C)[C@@H](C)O [Compound 32, N{alpha-4}-(3-methylbutanoyl)-N{epsilon-7}-[2-(2-{2-[2-(2-{2-[(4S)-4-carboxy-4-(17-carboxyheptadecanamido)butanamido]ethoxy}ethoxy)acetamido]ethoxy}ethoxy)acetamido]-[4A,7K,9E,12T,18Q,21E,22V,28Y,30W,31L]hPYY (4-36)] (Isovaleryl-APEK([AEEA-AEEA-γGlu-C18 diacid])PEEDTSPEELQRYEVSLRHYYNWLTRQRY-NH2) was run?
**A.** 4.84 nM

**Q.** Which Ki does the source give for CC(C)CC(=O)N[C@@H](C)C(=O)N1CCC[C@H]1C(=O)N[C@@H](CCC(=O)O)C(=O)N[C@@H](CCCCNC(=O)COCCOCCNC(=O)COCCOCCNC(=O)CC[C@H](NC(=O)CCCCCCCCCCCCCCCCC(=O)O)C(=O)O)C(=O)N1CCC[C@H]1C(=O)N[C@@H](CCC(=O)O)C(=O)N[C@@H](CCC(=O)O)C(=O)N[C@@H](CC(=O)O)C(=O)N[C@@H](C)C(=O)N[C@@H](CO)C(=O)N1CCC[C@H]1C(=O)N[C@@H](CCC(=O)O)C(=O)N[C@@H](CCC(=O)O)C(=O)N[C@@H](CC(C)C)C(=O)N[C@@H](CCC(N)=O)C(=O)N[C@@H](CCCNC(=N)N)C(=O)N[C@@H](Cc1ccc(O)cc1)C(=O)N[C@@H](Cc1ccc(O)cc1)C(=O)N[C@H](C(=O)N[C@@H](CO)C(=O)N[C@H](C(=O)N[C@@H](CCCNC(=N)N)C(=O)N[C@@H](Cc1c[nH]cn1)C(=O)N[C@@H](Cc1ccc(O)cc1)C(=O)N[C@@H](Cc1ccc(O)cc1)C(=O)N[C@@H](CC(N)=O)C(=O)N[C@@H](Cc1c[nH]c2ccccc12)C(=O)N[C@@H](CC(C)C)C(=O)N[C@H](C(=O)N[C@@H](CCCNC(=N)N)C(=O)N[C@@H](CCC(N)=O)C(=O)N[C@@H](CCCNC(=N)N)C(=O)N[C@@H](Cc1ccc(O)cc1)C(N)=O)[C@@H](C)O)[C@@H](C)O)C(C)C [Compound 34, N{alpha-4}-(3-methylbutanoyl)-N{epsilon-7}-[2-(2-{2-[2-(2-{2-[(4S)-4-carboxy-4-(17-carboxyheptadecanamido)butanamido]ethoxy}ethoxy)acetamido]ethoxy}ethoxy)acetamido]-[4A,7K,9E,18Q,22V,24T,28Y,30W,31L]hPYY (4-36)] here?
**A.** 6.4 nM

**Q.** For CC(C)CC(=O)N[C@@H](C)C(=O)N1CCC[C@H]1C(=O)N[C@@H](CCC(=O)O)C(=O)N[C@@H](CCCCNC(=O)COCCOCCNC(=O)COCCOCCNC(=O)CC[C@H](NC(=O)CCCCCCCCCCCCCCCCC(=O)O)C(=O)O)C(=O)N1CCC[C@H]1C(=O)N[C@@H](CCC(=O)O)C(=O)N[C@@H](CCC(=O)O)C(=O)N[C@@H](CC(=O)O)C(=O)N[C@@H](C)C(=O)N[C@@H](C)C(=O)N1CCC[C@H]1C(=O)N[C@@H](CCC(=O)O)C(=O)N[C@@H](CCC(=O)O)C(=O)N[C@H](C(=O)N[C@@H](CCC(N)=O)C(=O)N[C@@H](CCCNC(=N)N)C(=O)N[C@@H](Cc1ccc(O)cc1)C(=O)N[C@@H](Cc1ccc(O)cc1)C(=O)N[C@H](C(=O)N[C@@H](CO)C(=O)N[C@@H](CC(C)C)C(=O)N[C@@H](CCCNC(=N)N)C(=O)N[C@@H](Cc1c[nH]cn1)C(=O)N[C@@H](Cc1ccc(O)cc1)C(=O)N[C@@H](Cc1ccc(O)cc1)C(=O)N[C@@H](CC(N)=O)C(=O)N[C@@H](Cc1c[nH]c2ccccc12)C(=O)N[C@@H](CC(C)C)C(=O)N[C@H](C(=O)N[C@@H](CCCNC(=N)N)C(=O)N[C@@H](CCC(N)=O)C(=O)N[C@@H](CCCNC(=N)N)C(=O)N[C@@H](Cc1ccc(O)cc1)C(N)=O)[C@@H](C)O)C(C)C)[C@@H](C)O [Compound 35, N{alpha-4}-(3-methylbutanoyl)-N{epsilon-7}-[2-(2-{2-[2-(2-{2-[(4S)-4-carboxy-4-(17-carboxyheptadecanamido)butanamido]ethoxy}ethoxy)acetamido]ethoxy}ethoxy)acetamido]-[4A,7K,9E,13A,17T,18Q,22V,28Y,30W,31L]hPYY (4-36)], which Ki is on record?
**A.** 1.21 nM

**Q.** CC(C)CC(=O)N[C@@H](C)C(=O)N1CCC[C@H]1C(=O)N[C@@H](CCC(=O)O)C(=O)N[C@@H](CCCCNC(=O)COCCOCCNC(=O)COCCOCCNC(=O)CC[C@H](NC(=O)CCCCCCCCCCCCCCCCC(=O)O)C(=O)O)C(=O)N[C@@H](C)C(=O)N[C@@H](CCC(=O)O)C(=O)N[C@@H](CCC(=O)O)C(=O)N[C@@H](CC(=O)O)C(=O)N[C@@H](C)C(=O)N[C@@H](CCC(=O)O)C(=O)N1CCC[C@H]1C(=O)N[C@@H](CCC(=O)O)C(=O)N[C@@H](CCC(=O)O)C(=O)N[C@@H](CC(C)C)C(=O)N[C@@H](CCC(N)=O)C(=O)N[C@@H](CCCNC(=N)N)C(=O)N[C@@H](Cc1ccc(O)cc1)C(=O)N[C@@H](Cc1ccc(O)cc1)C(=O)N[C@H](C(=O)N[C@@H](CO)C(=O)N[C@@H](CC(C)C)C(=O)N[C@@H](CCCNC(=N)N)C(=O)N[C@@H](Cc1c[nH]cn1)C(=O)N[C@@H](Cc1ccc(O)cc1)C(=O)N[C@@H](Cc1ccc(O)cc1)C(=O)N[C@@H](CC(N)=O)C(=O)N[C@@H](Cc1c[nH]c2ccccc12)C(=O)N[C@@H](CC(C)C)C(=O)N[C@H](C(=O)N[C@@H](CCCNC(=N)N)C(=O)N[C@@H](CCC(N)=O)C(=O)N[C@@H](CCCNC(=N)N)C(=O)N[C@@H](Cc1ccc(O)cc1)C(N)=O)[C@@H](C)O)C(C)C [Compound 36, N{alpha-4}-(3-methylbutanoyl)-N{epsilon-7}-[2-(2-{2-[2-(2-{2-[(4S)-4-carboxy-4-(17-carboxyheptadecanamido)butanamido]ethoxy}ethoxy)acetamido]ethoxy}ethoxy)acetamido]-[4A,7K,8A,9E,13E,18Q,22V,28Y,30W,31L]hPYY (4-36)] was tested. Which Ki did it give?
**A.** 10.6 nM

**Q.** How did the Ki turn out when CC(C)CC(=O)N[C@@H](C)C(=O)N1CCC[C@H]1C(=O)N[C@@H](CCC(=O)O)C(=O)N[C@@H](CCCCNC(=O)COCCOCCNC(=O)COCCOCCNC(=O)CC[C@H](NC(=O)CCCCCCCCCCCCCCCCC(=O)O)C(=O)O)C(=O)N1CCC[C@H]1C(=O)N[C@@H](CCC(=O)O)C(=O)N[C@@H](CCC(=O)O)C(=O)N[C@@H](CC(=O)O)C(=O)N[C@@H](C)C(=O)N[C@@H](CO)C(=O)N1CCC[C@H]1C(=O)N[C@@H](CCC(=O)O)C(=O)N[C@@H](CCC(=O)O)C(=O)N[C@H](C(=O)N[C@@H](CCC(N)=O)C(=O)N[C@@H](CCCNC(=N)N)C(=O)N[C@@H](Cc1ccc(O)cc1)C(=O)N[C@@H](CCC(=O)O)C(=O)N[C@H](C(=O)N[C@@H](CO)C(=O)N[C@@H](CC(C)C)C(=O)N[C@@H](CCCNC(=N)N)C(=O)N[C@@H](Cc1c[nH]cn1)C(=O)N[C@@H](Cc1ccc(O)cc1)C(=O)N[C@@H](Cc1ccc(O)cc1)C(=O)N[C@@H](CC(N)=O)C(=O)N[C@@H](Cc1c[nH]c2ccccc12)C(=O)N[C@@H](CC(C)C)C(=O)N[C@H](C(=O)N[C@@H](CCCNC(=N)N)C(=O)N[C@@H](CCC(N)=O)C(=O)N[C@@H](CCCNC(=N)N)C(=O)N[C@@H](Cc1ccc(O)cc1)C(N)=O)[C@@H](C)O)C(C)C)[C@@H](C)O [Compound 37, N{alpha-4}-(3-methylbutanoyl)-N{epsilon-7}-[2-(2-{2-[2-(2-{2-[(4S)-4-carboxy-4-(17-carboxyheptadecanamido)butanamido]ethoxy}ethoxy)acetamido]ethoxy}ethoxy)acetamido]-[4A,7K,9E,17T,18Q,21E,22V,28Y,30W,31L]hPYY (4-36)] was run?
**A.** 4.85 nM
